Data as given in patent publication US9247759B2, “Identification of human T2R receptors that respond to bitter compounds that elicit the bitter taste in compositions, and the use thereof in assays to identify compounds that inhibit (block) bitter taste in compositions and use thereof” (SENOMYX, INC., priority 2007, dated 2016).
Like-named read-outs stand apart in the source and are kept apart here.

Legend:
hT2R3 = hT2R3 (Homo sapiens (Human), UniProt Q9NYW6); assay: hT2R panel inhibition, transient HEK293 G16g44, agonist Chloroquine pH6.5 50 μM; assay type: cell-based; details: HEK293, compound at 25 μM; receptor activated to EC80 with the corresponding agonist; read-out: screening result against bitter receptor 3
Chain of hT2R3 (Q9NYW6 whole entry): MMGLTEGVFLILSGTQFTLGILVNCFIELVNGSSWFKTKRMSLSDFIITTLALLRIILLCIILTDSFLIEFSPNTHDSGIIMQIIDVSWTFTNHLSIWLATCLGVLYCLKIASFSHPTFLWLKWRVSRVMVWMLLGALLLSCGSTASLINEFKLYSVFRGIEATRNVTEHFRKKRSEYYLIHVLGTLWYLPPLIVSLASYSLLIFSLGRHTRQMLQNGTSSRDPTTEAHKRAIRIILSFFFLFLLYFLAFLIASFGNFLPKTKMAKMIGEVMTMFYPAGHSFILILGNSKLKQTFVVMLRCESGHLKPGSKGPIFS
Summary of the method: (§1)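 Receptor activity was measured in functional assays after single-receptor transient transfection; bitter agonists were used at their EC80 levels. A decrease in that activity when the test compound was added was taken as inhibition.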

hT2R5 = hT2R5 (Homo sapiens (Human), UniProt Q9NYW4); assay: hT2R panel inhibition, transient HEK293 G16g44, agonist Picoline 10 mM; assay type: cell-based; details: HEK293, compound at 25 μM; receptor activated to EC80 with the corresponding agonist; read-out: screening result against bitter receptor 5
Chain of hT2R5 (Q9NYW4 whole entry): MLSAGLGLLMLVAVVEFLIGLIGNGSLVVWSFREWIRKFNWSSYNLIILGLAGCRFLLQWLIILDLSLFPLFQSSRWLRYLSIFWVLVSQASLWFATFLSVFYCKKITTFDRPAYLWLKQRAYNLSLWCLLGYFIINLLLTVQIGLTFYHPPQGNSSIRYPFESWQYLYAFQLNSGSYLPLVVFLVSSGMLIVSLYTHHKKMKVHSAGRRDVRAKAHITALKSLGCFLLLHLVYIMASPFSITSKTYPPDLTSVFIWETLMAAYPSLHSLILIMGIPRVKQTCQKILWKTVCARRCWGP
Summary of the method: as §1

hT2R7 = hT2R7 (Homo sapiens (Human), UniProt Q9NYW3); assay: hT2R panel inhibition, transient HEK293 G16g44, agonist Chloroquine pH6.5 10 mM; assay type: cell-based; details: HEK293, compound at 25 μM; receptor activated to EC80 with the corresponding agonist; read-out: screening result against bitter receptor 7
Chain of hT2R7 (Q9NYW3 whole entry): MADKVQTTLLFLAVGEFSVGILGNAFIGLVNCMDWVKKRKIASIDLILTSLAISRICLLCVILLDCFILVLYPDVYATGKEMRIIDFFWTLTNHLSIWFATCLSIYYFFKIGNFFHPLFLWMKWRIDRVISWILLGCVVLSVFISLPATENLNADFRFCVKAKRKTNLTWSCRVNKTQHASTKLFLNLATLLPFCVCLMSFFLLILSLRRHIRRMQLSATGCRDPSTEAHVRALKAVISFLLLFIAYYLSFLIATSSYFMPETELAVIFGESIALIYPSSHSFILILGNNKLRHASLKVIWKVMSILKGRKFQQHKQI
Summary of the method: as §1

hT2R9 = hT2R9 (Homo sapiens (Human), UniProt Q9NYW1); assay: hT2R panel inhibition, transient HEK293 G16g44, agonist Ofloxacin 1 mM; assay type: cell-based; details: HEK293, compound at 25 μM; receptor activated to EC80 with the corresponding agonist; read-out: screening result against bitter receptor 9
Chain of hT2R9 (Q9NYW1 whole entry): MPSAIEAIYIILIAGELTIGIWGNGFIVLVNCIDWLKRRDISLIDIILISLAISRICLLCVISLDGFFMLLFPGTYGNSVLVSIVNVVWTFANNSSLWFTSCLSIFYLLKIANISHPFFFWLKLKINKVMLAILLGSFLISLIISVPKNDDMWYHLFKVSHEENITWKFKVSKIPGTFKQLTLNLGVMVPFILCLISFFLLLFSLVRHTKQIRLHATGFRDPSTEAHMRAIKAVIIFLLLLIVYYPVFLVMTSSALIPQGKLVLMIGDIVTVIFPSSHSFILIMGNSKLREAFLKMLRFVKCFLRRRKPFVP
Description: Specifically, in order to evaluate the inhibitory selectivity of the Compound C compound, this compound was tested against 22 human T2Rs which were deorphaned by Senomyx. These receptors and the bitter ligands that activate these human T2Rs are reported in earlier patent applications which are incorporated by reference herein. These 22 human T2Rs are hT2R1, 3, 4, 5, 7, 8, 9, 10, 13, 14, 16, 44, 51, 54, 55, 61, 63, 64, 65, 67, 71 and 75. The amino acid and nucleic acid sequences of all of these T2Rs may be found in these earlier patent applications. These human T2Rs were each individually transiently transfected into HEK293 cells that stably express the promiscuous G protein G16g44 and functional assays were effected using these receptors as disclosed in these same patent applications. […] The ligands were used at EC80 concentration levels. The list of bitter ligands utilized and the tested ligand concentrations are contained in Table 5 of this example.
Relating to the foregoing, FIG. 5 contains experimental results wherein Compound C was tested with different agonist compounds. The inhibition activity is represented by the reduction of receptor activity in the presence of Compound C. […] These 13 hT2Rs are hT2R3, 7, 10, 14, 16, 44, 51, 55, 61, 63, 64, 65, and 71.

hT2R10 = hT2R10 (Homo sapiens (Human), UniProt Q9NYW0); assay: hT2R panel inhibition, transient HEK293 G16g44, agonist Strychnine 50 μM; assay type: cell-based; details: HEK293, read-out: screening result against bitter receptor 10, compound at 25 μM; receptor activated to EC80 with the corresponding agonist
Chain of hT2R10 (Q9NYW0 whole entry): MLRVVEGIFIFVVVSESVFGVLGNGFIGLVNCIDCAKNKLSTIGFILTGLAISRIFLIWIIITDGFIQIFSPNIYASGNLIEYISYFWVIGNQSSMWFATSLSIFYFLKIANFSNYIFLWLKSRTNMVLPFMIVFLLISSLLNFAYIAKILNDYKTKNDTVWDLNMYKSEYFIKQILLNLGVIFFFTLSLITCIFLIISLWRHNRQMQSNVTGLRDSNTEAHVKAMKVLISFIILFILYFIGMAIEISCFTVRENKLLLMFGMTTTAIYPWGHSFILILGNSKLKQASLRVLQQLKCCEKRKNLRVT

hT2R14 [1] = biological target: T1, hT2R14 (Homo sapiens (Human), UniProt Q9NYV8); assay: hT2R panel inhibition, transient HEK293 G16g44, agonist Aristolochic Acid 2 μM; assay type: cell-based; details: HEK293, compound at 25 μM; receptor activated to EC80 with the corresponding agonist; read-out: screening result against bitter receptor 14
T1 sequence (Q9NYV8 whole entry): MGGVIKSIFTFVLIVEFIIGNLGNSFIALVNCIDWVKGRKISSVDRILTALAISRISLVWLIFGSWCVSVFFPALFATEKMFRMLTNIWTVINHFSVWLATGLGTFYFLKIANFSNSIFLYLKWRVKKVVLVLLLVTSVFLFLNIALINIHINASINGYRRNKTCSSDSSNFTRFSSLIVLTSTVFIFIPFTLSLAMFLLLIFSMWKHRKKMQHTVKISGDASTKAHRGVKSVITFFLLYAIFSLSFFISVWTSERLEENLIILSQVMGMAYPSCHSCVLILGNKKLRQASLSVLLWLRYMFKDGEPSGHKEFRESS
Summary of the method: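 Each hT2R was transiently transfected into HEK293 cells stably expressing G16g44 and assayed functionally for inhibition of agonist response. Agonists were applied at EC80: andrographolide at 0.5 mM for hT2R8 and aristolochic acid at 2 μM for hT2R14.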

hT2R16 = hT2R16 (Homo sapiens (Human), UniProt Q9NYV7); assay: hT2R panel inhibition, transient HEK293 G16g44, agonist Salicin 1 mM; assay type: cell-based; details: HEK293, compound at 25 μM; receptor activated to EC80 with the corresponding agonist; read-out: screening result against bitter receptor 16
Chain of hT2R16 (Q9NYV7 whole entry): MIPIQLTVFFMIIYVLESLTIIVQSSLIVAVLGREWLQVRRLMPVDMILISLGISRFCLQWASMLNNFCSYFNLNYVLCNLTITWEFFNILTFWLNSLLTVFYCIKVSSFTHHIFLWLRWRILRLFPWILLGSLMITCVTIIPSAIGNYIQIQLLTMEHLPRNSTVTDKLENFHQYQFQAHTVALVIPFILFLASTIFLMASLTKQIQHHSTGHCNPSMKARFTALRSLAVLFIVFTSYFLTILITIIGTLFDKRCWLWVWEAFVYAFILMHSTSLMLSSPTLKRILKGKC
Summary of the method: as §1

hT2R44 = assay: hT2R panel inhibition, transient HEK293 G16g44, agonist Denatonium 0.5 μM; assay type: cell-based, human; details: compound at 25 μM; receptor activated to EC80 with the corresponding agonist
Summary of the method: as §1

hT2R51 = hT2R51 (Homo sapiens (Human), UniProt P59533); assay: hT2R panel inhibition, transient HEK293 G16g44, agonist Prop 2.5 μM; assay type: cell-based; details: HEK293, compound at 25 μM; receptor activated to EC80 with the corresponding agonist; read-out: screening result against bitter receptor 51
Chain of hT2R51 (P59533 whole entry): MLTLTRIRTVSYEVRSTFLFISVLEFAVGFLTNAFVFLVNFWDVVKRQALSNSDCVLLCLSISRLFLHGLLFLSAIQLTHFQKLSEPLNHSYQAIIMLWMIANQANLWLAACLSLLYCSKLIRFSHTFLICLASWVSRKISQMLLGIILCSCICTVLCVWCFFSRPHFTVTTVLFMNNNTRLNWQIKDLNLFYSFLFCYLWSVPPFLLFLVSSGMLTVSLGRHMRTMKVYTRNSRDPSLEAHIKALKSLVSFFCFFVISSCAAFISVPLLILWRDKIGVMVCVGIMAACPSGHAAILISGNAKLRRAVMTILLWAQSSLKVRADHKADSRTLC
Summary of the method: as §1

hT2R54 = assay: hT2R panel inhibition, transient HEK293 G16g44, agonist Ranitidine 5 mM; assay type: cell-based, human; details: compound at 25 μM; receptor activated to EC80 with the corresponding agonist
Summary of the method: as §1

hT2R55 = assay: hT2R panel inhibition, transient HEK293 G16g44, agonist Cinchonine 150 μM; assay type: cell-based, human; details: compound at 25 μM; receptor activated to EC80 with the corresponding agonist
Summary of the method: as §1

hT2R61 = hT2R61 (Homo sapiens (Human), UniProt P59537); assay: hT2R panel inhibition, transient HEK293 G16g44, agonist Aristolochic Acid 25 nM; assay type: cell-based; details: HEK293, compound at 25 μM; receptor activated to EC80 with the corresponding agonist; read-out: screening result against bitter receptor 61
Chain of hT2R61 (P59537 whole entry): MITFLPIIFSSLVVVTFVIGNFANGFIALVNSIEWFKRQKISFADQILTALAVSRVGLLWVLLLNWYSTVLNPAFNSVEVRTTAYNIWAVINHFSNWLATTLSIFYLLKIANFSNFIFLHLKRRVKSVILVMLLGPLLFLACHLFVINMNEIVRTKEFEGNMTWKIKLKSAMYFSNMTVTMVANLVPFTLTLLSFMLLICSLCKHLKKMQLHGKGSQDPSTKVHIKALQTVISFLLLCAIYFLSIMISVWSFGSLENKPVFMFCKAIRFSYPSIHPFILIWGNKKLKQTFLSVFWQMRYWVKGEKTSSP
Summary of the method: as §1

hT2R63 = assay: hT2R panel inhibition, transient HEK293 G16g44, agonist Caffeine 1 mM or Andrographolide 100 μM; assay type: cell-based, human; details: compound at 25 μM; receptor activated to EC80 with the corresponding agonist
Summary of the method: as §1

hT2R64 = hT2R64 (Homo sapiens (Human), UniProt P59538); assay: hT2R panel inhibition, transient HEK293 G16g44, agonist Aristolochic Acid 1 μM; assay type: cell-based; details: HEK293, compound at 25 μM; receptor activated to EC80 with the corresponding agonist; read-out: screening result against bitter receptor 64
Chain of hT2R64 (P59538 whole entry): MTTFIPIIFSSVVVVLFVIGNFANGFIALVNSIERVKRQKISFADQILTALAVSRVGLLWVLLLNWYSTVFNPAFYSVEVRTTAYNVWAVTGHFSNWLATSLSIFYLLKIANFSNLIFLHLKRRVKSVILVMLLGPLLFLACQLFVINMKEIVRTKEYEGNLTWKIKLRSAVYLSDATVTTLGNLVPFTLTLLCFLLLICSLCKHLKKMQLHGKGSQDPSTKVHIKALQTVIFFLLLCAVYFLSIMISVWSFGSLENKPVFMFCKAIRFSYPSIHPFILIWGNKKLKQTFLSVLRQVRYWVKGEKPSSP
Summary of the method: as §1

hT2R65 = assay: hT2R panel inhibition, transient HEK293 G16g44, agonist Oleuropein 1 mM; assay type: cell-based, human; details: compound at 25 μM; receptor activated to EC80 with the corresponding agonist
Summary of the method: as §1

hT2R71 = hT2R71 (Homo sapiens (Human), UniProt P59536); assay: hT2R panel inhibition, transient HEK293 G16g44, agonist Picric Acid 10 μM; assay type: cell-based; details: HEK293, compound at 25 μM; receptor activated to EC80 with the corresponding agonist; read-out: screening result against bitter receptor 71
Chain of hT2R71 (P59536 whole entry): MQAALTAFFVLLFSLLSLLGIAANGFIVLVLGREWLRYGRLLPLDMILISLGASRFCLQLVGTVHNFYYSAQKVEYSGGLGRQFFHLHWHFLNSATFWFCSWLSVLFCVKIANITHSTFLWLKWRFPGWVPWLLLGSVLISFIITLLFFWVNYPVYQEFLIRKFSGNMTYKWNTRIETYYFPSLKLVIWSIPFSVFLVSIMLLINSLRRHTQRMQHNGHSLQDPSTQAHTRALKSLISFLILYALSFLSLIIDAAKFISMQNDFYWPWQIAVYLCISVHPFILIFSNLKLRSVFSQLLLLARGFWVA
Summary of the method: as §1

hT2R14 [2] = biological target: T1, hT2R14; assay: hT2R14 antagonist high-throughput FLIPR assay, stable cell line with G16g44, agonist aristolochic acid; assay type: cell-based
Summary of the method: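 HEK293 cells stably expressing hT2R14 with chimeric G16g44 were stimulated with aristolochic acid (3 μM), giving 70-80% of maximal receptor activity. Test compounds were added together with the agonist, and antagonism was read as fluorescent calcium signal on FLIPR.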

hT2R67 = assay: hT2R panel inhibition, transient HEK293 G16g44, agonist Andrographolide 5 μM; assay type: cell-based, human; details: compound at 25 μM; receptor activated to EC80 with the corresponding agonist
Summary of the method: as §1

hT2R75 = hT2R75 (Homo sapiens (Human), UniProt P59540); assay: hT2R panel inhibition, transient HEK293 G16g44, agonist Strychnine 1 μM; assay type: cell-based; details: HEK293, read-out: screening result against bitter receptor 75, compound at 25 μM; receptor activated to EC80 with the corresponding agonist
Chain of hT2R75 (P59540 whole entry): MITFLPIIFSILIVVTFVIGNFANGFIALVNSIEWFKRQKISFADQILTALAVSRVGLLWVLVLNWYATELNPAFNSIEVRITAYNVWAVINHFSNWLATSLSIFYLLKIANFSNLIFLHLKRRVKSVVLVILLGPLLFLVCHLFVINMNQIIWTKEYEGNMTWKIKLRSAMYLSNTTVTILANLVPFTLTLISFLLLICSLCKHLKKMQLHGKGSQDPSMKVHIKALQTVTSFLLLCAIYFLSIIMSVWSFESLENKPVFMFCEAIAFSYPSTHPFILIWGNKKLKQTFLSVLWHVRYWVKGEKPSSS

[3] = read-out: IC50 on hT2R14 bitter receptor

| SMILES | inhibition at 25 µM (hT2R3) [%] | inhibition at 25 µM (hT2R5) [%] | inhibition at 25 µM (hT2R7) [%] | inhibition at 25 µM (hT2R9) [%] | inhibition at 25 µM (hT2R10) [%] | inhibition at 25 µM (hT2R14 [1]) [%] | inhibition at 25 µM (hT2R16) [%] | screening result against bitter receptor 44 (hT2R44) | inhibition at 25 µM (hT2R51) [%] | screening result against bitter receptor 54 (hT2R54) | screening result against bitter receptor 55 (hT2R55) | inhibition at 25 µM (hT2R61) [%] | screening result against bitter receptor 63 (hT2R63) | inhibition at 25 µM (hT2R64) [%] | screening result against bitter receptor 65 (hT2R65) | inhibition at 25 µM (hT2R71) [%] | IC50 (hT2R14 [2]; [3]) [µM] | screening result against bitter receptor 67 (hT2R67) | IC50 (hT2R14 [2]; Table C, read-out: hT2R14 IC50) [µM] | inhibition at 25 µM (hT2R75) [%] |
| --- | --- | --- | --- | --- | --- | --- | --- | --- | --- | --- | --- | --- | --- | --- | --- | --- | --- | --- | --- | --- |
| COc1ccc(CN(Cc2ccccc2)S(=O)(=O)c2ccc(C(=O)O)cc2)c(OC)c1 [Example 5-13, 4-(N-benzyl-N-(2,4-dimethoxybenzyl)sulfamoyl)benzoic acid] | 40 to 60 | 20 to 40 | 20 to 40 | 20 to 40 | 20 to 40 | > 80 | 20 to 40 | +++ (60% to 80% inhibition = +++) | 20 to 40 | +++ (60% to 80% inhibition = +++) | ++++ (80% or greater inhibition = ++++) | > 80 | ++++ (80% or greater inhibition = ++++) | 60 to 80 | + (20% to 40% inhibition = +) | 40 to 60 |  |  |  |  |
| COc1cc(OC)c(CN(Cc2ccccc2)S(=O)(=O)c2ccc(C(=O)O)cc2)c(OC)c1 [Example 5-15, 4-(N-benzyl-N-(2,4,6-trimethoxybenzyl)sulfamoyl)benzoic acid] | 40 to 60 | 20 to 40 | 20 to 40 | 20 to 40 | 40 to 60 | > 80 | 20 to 40 |  |  |  |  | > 80 |  | 60 to 80 | + (20% to 40% inhibition = +) | 60 to 80 | 10.8 |  |  |  |
| COc1ccc(CN(Cc2ccccc2F)S(=O)(=O)c2ccc(C(=O)O)cc2)cc1 [Example 5-31, 4-(N-(2-fluorobenzyl)-N-(4-methoxybenzyl)sulfamoyl)benzoic acid] | 20 to 40 |  |  | 20 to 40 |  |  |  | + (20% to 40% inhibition = +) |  |  |  |  |  |  |  |  |  |  |  |  |
| COc1ccc(CN(Cc2cccc(OC)c2)S(=O)(=O)c2ccc(C(=O)O)cc2)cc1 [Example 5-34, 4-(N-(3-methoxybenzyl)-N-(4-methoxybenzyl)sulfamoyl)-benzoic acid] | 40 to 60 | 40 to 60 | 20 to 40 | 20 to 40 | 40 to 60 | > 80 | 20 to 40 | ++ (40% to 60% inhibition = ++) | 20 to 40 | +++ (60% to 80% inhibition = +++) | ++++ (80% or greater inhibition = ++++) | > 80 | ++++ (80% or greater inhibition = ++++) | 60 to 80 | ++ (40% to 60% inhibition = ++) | 60 to 80 | 2.46 | + (20% to 40% inhibition = +) |  |  |
| COc1ccc(CN(Cc2cc(OC)cc(OC)c2)S(=O)(=O)c2ccc(C(=O)O)cc2)cc1 [Example 5-67, 4-(N-(3,5-dimethoxybenzyl)-N-(4-methoxybenzyl)sulfamoyl)benzoic acid] | 40 to 60 | 20 to 40 |  | 20 to 40 | 40 to 60 | 60 to 80 | 20 to 40 | ++ (40% to 60% inhibition = ++) |  | ++ (40% to 60% inhibition = ++) | ++++ (80% or greater inhibition = ++++) | 40 to 60 | ++++ (80% or greater inhibition = ++++) | 60 to 80 | + (20% to 40% inhibition = +) | 40 to 60 |  | + (20% to 40% inhibition = +) | 12.1 |  |
| O=C(O)c1ccc(S(=O)(=O)N(Cc2ccccc2)Cc2ccccc2F)cc1 [Example 5-72, 4-(N-benzyl-N-(2-fluorobenzyl)sulfamoyl)benzoic acid] | 20 to 40 | 40 to 60 |  | 20 to 40 | 20 to 40 | > 80 | 20 to 40 | + (20% to 40% inhibition = +) | 20 to 40 | + (20% to 40% inhibition = +) | ++ (40% to 60% inhibition = ++) | 60 to 80 | ++++ (80% or greater inhibition = ++++) | 20 to 40 | + (20% to 40% inhibition = +) | 20 to 40 |  | + (20% to 40% inhibition = +) |  | 40 to 60 |
| O=C(O)c1ccc(S(=O)(=O)N(Cc2ccccc2)Cc2cccc(C(=O)O)c2)cc1 [Example 5-76, 3-((N-benzyl-4-carboxyphenylsulfonamido)methyl)benzoic acid] | 20 to 40 | 20 to 40 |  | 20 to 40 |  |  |  |  |  |  |  | 40 to 60 | ++ (40% to 60% inhibition = ++) |  |  | 20 to 40 |  | + (20% to 40% inhibition = +) |  |  |
| Cc1ccccc1CN(Cc1ccccc1)S(=O)(=O)c1ccc(C(=O)O)cc1 [Example 5-80, 4-(N-benzyl-N-(2-methylbenzyl)sulfamoyl)benzoic acid] | 40 to 60 | 20 to 40 | 20 to 40 | 20 to 40 | 20 to 40 | > 80 | 20 to 40 | + (20% to 40% inhibition = +) | 40 to 60 | + (20% to 40% inhibition = +) | +++ (60% to 80% inhibition = +++) | 60 to 80 | ++++ (80% or greater inhibition = ++++) | 60 to 80 | ++ (40% to 60% inhibition = ++) | 60 to 80 |  | + (20% to 40% inhibition = +) |  | 20 to 40 |
